In ChEMBL document CHEMBL1821689, “1,6-Disubstituted indole derivatives as selective human neuronal nitric oxide synthase inhibitors” (Bioorg Med Chem Lett, 2011):
Calls of active or inactive are those of the source. No cut-off for these calls is given here.

Tests used:
[1] = target: Nitric oxide synthase, inducible (Homo sapiens, UniProt P35228); assay: Inhibition of recombinant human iNOS expressed in baculovirus infected insect Sf9 cells assessed as conversion of [3H]-L-arginine into [3H]-L-citrulline by radiometric method
Chain of Nitric oxide synthase, inducible (P35228 whole entry): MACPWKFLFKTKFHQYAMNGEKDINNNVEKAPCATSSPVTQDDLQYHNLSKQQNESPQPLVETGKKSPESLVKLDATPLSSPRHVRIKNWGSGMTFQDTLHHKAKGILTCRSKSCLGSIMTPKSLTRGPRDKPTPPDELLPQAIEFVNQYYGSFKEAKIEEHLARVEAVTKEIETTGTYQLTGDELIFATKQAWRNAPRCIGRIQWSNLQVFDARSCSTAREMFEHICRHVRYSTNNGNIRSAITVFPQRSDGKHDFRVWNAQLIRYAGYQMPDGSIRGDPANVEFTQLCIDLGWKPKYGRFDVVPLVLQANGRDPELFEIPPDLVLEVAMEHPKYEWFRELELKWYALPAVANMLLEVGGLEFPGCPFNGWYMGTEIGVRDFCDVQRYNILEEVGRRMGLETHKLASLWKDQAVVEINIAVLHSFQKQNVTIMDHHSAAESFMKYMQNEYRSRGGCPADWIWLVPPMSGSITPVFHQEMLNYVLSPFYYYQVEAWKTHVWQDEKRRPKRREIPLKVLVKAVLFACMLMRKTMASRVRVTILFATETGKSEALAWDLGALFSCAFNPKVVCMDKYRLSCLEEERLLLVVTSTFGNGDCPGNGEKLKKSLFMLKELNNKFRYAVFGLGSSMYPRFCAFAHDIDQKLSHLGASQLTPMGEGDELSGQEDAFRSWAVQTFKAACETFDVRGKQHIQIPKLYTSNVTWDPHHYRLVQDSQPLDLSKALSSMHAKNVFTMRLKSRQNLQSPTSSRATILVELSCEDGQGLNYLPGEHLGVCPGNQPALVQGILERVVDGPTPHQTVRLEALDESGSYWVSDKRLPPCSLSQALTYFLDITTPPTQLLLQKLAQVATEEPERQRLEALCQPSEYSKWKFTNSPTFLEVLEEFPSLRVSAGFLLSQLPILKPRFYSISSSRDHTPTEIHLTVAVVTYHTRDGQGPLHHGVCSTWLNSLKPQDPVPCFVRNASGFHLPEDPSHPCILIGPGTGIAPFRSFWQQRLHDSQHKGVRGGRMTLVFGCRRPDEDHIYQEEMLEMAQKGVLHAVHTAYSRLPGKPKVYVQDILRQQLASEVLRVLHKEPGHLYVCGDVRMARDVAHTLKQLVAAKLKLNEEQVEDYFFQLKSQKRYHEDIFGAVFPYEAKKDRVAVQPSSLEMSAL

Nitric oxide synthase 3 = target: T1, Nitric oxide synthase 3 (Homo sapiens, UniProt P29474); assay: Inhibition of recombinant human eNOS expressed in baculovirus infected insect Sf9 cells assessed as conversion of [3H]-L-arginine into [3H]-L-citrulline by radiometric method
T1 sequence (P29474 whole entry): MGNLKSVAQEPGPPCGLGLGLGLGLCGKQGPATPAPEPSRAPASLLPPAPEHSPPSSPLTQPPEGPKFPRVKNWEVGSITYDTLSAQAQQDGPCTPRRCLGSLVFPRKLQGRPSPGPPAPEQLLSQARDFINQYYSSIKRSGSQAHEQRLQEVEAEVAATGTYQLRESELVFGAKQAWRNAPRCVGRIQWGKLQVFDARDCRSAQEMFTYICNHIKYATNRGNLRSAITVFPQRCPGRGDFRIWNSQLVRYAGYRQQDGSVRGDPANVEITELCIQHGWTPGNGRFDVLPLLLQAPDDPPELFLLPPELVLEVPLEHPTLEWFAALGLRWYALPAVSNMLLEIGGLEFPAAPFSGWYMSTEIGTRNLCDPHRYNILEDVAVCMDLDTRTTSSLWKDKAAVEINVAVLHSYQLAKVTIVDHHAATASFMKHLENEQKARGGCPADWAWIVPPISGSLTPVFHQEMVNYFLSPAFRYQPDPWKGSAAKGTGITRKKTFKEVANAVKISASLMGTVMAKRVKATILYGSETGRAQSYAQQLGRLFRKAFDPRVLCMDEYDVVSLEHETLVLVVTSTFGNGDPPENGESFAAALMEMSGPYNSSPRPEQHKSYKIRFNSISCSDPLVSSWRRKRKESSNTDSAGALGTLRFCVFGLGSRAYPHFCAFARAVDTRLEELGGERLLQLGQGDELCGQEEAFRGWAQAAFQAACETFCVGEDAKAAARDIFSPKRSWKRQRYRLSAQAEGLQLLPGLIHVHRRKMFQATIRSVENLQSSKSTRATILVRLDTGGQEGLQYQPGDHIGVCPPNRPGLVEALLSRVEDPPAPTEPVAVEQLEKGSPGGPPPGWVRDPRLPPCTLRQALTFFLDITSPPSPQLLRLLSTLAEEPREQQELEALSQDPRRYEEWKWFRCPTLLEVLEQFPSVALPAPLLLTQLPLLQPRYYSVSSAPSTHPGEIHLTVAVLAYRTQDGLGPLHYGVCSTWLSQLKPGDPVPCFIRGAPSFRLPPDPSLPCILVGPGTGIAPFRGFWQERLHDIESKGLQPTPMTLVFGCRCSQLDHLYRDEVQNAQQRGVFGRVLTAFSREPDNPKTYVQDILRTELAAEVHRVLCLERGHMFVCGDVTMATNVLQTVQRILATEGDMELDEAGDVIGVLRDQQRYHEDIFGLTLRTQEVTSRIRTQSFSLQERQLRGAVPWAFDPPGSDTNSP

Nitric oxide synthase 1 = Nitric oxide synthase 1 (Homo sapiens, UniProt P29475); assay: Inhibition of recombinant human nNOS expressed in baculovirus infected insect Sf9 cells assessed as conversion of [3H]-L-arginine into [3H]-L-citrulline by radiometric method
Chain of Nitric oxide synthase 1 (P29475 whole entry): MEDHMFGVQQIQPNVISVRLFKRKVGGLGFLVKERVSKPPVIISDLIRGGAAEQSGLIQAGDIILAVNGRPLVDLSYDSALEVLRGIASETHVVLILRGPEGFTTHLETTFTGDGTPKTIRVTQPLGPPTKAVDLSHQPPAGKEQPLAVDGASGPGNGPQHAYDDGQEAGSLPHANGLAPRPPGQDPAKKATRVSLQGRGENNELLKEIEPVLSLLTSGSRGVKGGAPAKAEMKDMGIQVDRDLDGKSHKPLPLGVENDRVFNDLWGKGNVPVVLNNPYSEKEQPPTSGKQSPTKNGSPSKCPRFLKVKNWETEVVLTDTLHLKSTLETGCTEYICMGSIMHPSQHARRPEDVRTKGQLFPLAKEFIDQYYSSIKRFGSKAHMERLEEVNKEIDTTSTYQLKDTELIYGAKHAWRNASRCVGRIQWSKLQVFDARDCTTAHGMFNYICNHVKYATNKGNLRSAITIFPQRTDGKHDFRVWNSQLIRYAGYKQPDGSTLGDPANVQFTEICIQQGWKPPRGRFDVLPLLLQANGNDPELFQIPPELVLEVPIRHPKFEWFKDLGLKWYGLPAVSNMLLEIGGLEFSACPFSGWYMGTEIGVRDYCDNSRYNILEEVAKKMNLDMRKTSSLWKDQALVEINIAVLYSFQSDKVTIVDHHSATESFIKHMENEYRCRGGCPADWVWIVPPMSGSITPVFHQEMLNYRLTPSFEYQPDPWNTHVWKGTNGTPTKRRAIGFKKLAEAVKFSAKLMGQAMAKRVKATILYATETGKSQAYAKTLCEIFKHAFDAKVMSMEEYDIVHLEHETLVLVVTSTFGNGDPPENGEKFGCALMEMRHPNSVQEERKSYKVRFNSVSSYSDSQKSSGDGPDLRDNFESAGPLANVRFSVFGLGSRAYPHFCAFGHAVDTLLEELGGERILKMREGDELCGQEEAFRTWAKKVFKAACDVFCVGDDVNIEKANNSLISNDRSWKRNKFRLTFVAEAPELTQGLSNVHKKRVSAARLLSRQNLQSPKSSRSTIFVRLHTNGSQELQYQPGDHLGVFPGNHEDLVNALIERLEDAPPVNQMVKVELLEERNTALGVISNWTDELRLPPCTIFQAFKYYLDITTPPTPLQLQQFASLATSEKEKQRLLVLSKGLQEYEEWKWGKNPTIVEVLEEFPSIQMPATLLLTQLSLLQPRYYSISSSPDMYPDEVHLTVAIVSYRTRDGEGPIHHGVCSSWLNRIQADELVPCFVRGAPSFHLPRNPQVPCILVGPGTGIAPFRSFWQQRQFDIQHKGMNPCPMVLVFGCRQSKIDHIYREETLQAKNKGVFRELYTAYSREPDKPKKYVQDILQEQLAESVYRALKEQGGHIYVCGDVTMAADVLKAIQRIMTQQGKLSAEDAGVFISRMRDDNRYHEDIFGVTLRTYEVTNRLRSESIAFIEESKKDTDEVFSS

Homo sapiens = organism: Homo sapiens; assay: Selectivity ratio of IC50 for recombinant human eNOS to IC50 for recombinant human nNOS
[2] = target: Nitric oxide sythases; iNOS & nNOS (Homo sapiens) (UniProt P29475+P35228); assay: Selectivity ratio of IC50 for recombinant human iNOS to IC50 for recombinant human nNOS
Chain of Nitric oxide sythases; iNOS & nNOS (Homo sapiens) (P29475 whole entry, looked up): as the sequence (P29475 whole entry) above
Chain of Nitric oxide sythases; iNOS & nNOS (Homo sapiens) (P35228 whole entry, looked up): as the sequence (P35228 whole entry) above

Rattus norvegicus [3] = assay: Antiallodynic activity in Sprague-Dawley rat model of migraine pain assessed as attenuation of cutaneous allodynia in the hind-paws at 30 mg/kg, po administered 15 mins prior to application of inflammatory soup measured between 2 to 6 hrs; type: functional, organism-based; design: dose 30 mg/kg
Rattus norvegicus [4] = assay: Antiallodynic activity in Sprague-Dawley rat model of migraine pain assessed as attenuation of cutaneous allodynia in the hind-paws at 30 mg/kg, po administered 15 mins prior to application of inflammatory soup measured at 4 hrs; type: functional, organism-based; design: dose 30 mg/kg

Compound | IC50 [1] [µM] | IC50 (Nitric oxide synthase 3) [µM] | Ratio IC50 (Homo sapiens) | Ratio IC50 [2] | other results
CN1CCCC(n2ccc3ccc(NC(=N)c4cccs4)cc32)CC1 (stereo not drawn) |  | 37.7 |  |  | 
N/C(=N\c1ccc2ccn(CCN3CCCCC3)c2c1)c1cccs1 |  |  | 8 | 43 | 
N/C(=N\c1ccc2ccn(CCCN3CCOCC3)c2c1)c1ccco1 |  |  | 14 | 15 | 
N/C(=N\c1ccc2ccn(CCCN3CCOCC3)c2c1)c1cccs1 |  |  | 40 | 117 | 
N/C(=N\c1ccc2ccn(CCCCn3ccnc3)c2c1)c1cccs1 |  |  | 19 |  | 
CN1CCCC1CCn1ccc2ccc(/N=C(\N)c3cccs3)cc21 (racemic) |  |  | 86 | 309 | 
N=C(Nc1ccc2ccn(CCCN3CCOCC3)c2c1)c1ccsc1 | 70 |  |  |  | 
N/C(=N\c1ccc2ccn(CCCN3CCOCC3)c2c1)c1ccsc1 |  |  | 12.1 | 50 | 
N/C(=N\c1ccc2ccn(CCCN3CCCC3)c2c1)c1cccs1 |  |  | 25 |  | 
CCN(CC)CCCn1ccc2ccc(NC(=N)c3cccs3)cc21 |  |  |  |  | IC50 (Nitric oxide synthase 1): 0.15 µM
CN1CCCC(n2ccc3ccc(NC(=N)c4ccco4)cc32)CC1 (stereo not drawn) | 1.2 | 30.6 | 59 | 2 | IC50 (Nitric oxide synthase 1): 0.52 µM
N=C(Nc1ccc2ccn(CCCN3CCOCC3)c2c1)c1ccco1 | 36 |  |  |  | 
CN1CCCC(n2ccc3ccc(/N=C(\N)c4cccs4)cc32)CC1 (stereo not drawn) |  |  | 43 |  | 
CN1CCC[C@H]1CCn1ccc2ccc(/N=C(\N)c3cccs3)cc21 | 72 |  | 120 | 360 | 
CN1CCC[C@@H]1CCn1ccc2ccc(/N=C(\N)c3cccs3)cc21 | 72 |  | 50 | 225 | Activity (Rattus norvegicus [3]): Active; Activity (Rattus norvegicus [4]): Active
N/C(=N\c1ccc2ccn(CCCN3CCOCC3)c2c1)c1ccoc1 |  |  | 19 |  | 
N=C(Nc1ccc2ccn(CCCN3CCOCC3)c2c1)c1ccoc1 | > 100 |  |  |  | 

More lines, main results first:

IC50 [1] [µM] | IC50 (Nitric oxide synthase 3) [µM] | Ratio IC50 (Homo sapiens) | Ratio IC50 [2] | Compound | other results
60 |  |  |  | CN(C)CCn1ccc2ccc(N=C(N)c3cccs3)cc21 | 
 | 11.8 |  |  | CNCCCn1ccc2ccc(NC(=N)c3cccs3)cc21 | 
 | 11.2 |  |  | N=C(Nc1ccc2ccn(CCCN3CCCC3)c2c1)c1cccs1 | IC50 (Nitric oxide synthase 1): 0.45 µM
21 |  |  |  | N=C(Nc1ccc2ccn(CCN3CCCCC3)c2c1)c1cccs1 | 
82 | 28.3 |  |  | N=C(Nc1ccc2ccn(CCCN3CCOCC3)c2c1)c1cccs1 | IC50 (Nitric oxide synthase 1): 0.7 µM
 |  | 10 | 254 | CN(C)CCCCn1ccc2ccc(/N=C(\N)c3cccs3)cc21 | 
 |  | 6 |  | CNCCCn1ccc2ccc(/N=C(\N)c3cccs3)cc21 | 
 |  | 68 |  | CCN(CC)CCCn1ccc2ccc(/N=C(\N)c3cccs3)cc21 | 
 | 23.3 |  |  | CN(C)CCCn1ccc2ccc(NC(=N)c3cccs3)cc21 | 
66 | 2.53 |  |  | CN(C)CCCCn1ccc2ccc(NC(=N)c3cccs3)cc21 | IC50 (Nitric oxide synthase 1): 0.26 µM
> 100 | 23 |  |  | N=C(Nc1ccc2ccn(CCCCn3ccnc3)c2c1)c1cccs1 | 
68 | 19 |  |  | CN1CCCC1CCn1ccc2ccc(NC(=N)c3cccs3)cc21 (racemic) | IC50 (Nitric oxide synthase 1): 0.22 µM
